Experimental data as given in patent US20250034184A1, “QUATERNARY PHOSPHONIUM COMPOUNDS AND USES THEREOF” (Emory University, priority 2021, published 2025).

Columns and labels:
[1] = tested on: methicillin-susceptible S. aureus (SH1000); test: microbe, parasite or virus in culture; assay type: cell-based
[2] = tested on: community-acquired methicillin-resistant S. aureus (CA-MRSA; USA 300-0114); test: microbe, parasite or virus in culture; assay type: cell-based
[3] = tested on: hospital-acquired methicillin-resistant S. aureus (HA-MRSA; ATCC 33591); test: microbe, parasite or virus in culture; assay type: cell-based
[4] = tested on: Enterococcus faecalis (OG1RF); test: microbe, parasite or virus in culture; assay type: cell-based
[5] = tested on: Escherichia coli (MC4100); test: microbe, parasite or virus in culture; assay type: cell-based
[6] = tested on: Pseudomonas aeruginosa (PAO1); test: microbe, parasite or virus in culture; assay type: cell-based
[7] = tested on: A. baumannii strain ATCC 19606; assay type: cell-based, Acinetobacter baumannii
[8] = tested on: A. baumannii pan-resistant clinical isolate, MRSN 17493; assay type: cell-based, Acinetobacter baumannii
[9] = tested on: red blood cell (RBC)

| Compound | MIC ([1]; Staphylococcus aureus, MSSA, read-out: Minimum Inhibitory Concentration MSSA) | MIC ([2]; Staphylococcus aureus, read-out: Minimum Inhibitory Concentration CA-MRSA) | MIC ([3]; Staphylococcus aureus, read-out: Minimum Inhibitory Concentration HA-MRSA) | MIC ([4]; Enterococcus faecalis, read-out: Minimum Inhibitory Concentration E. faecalis) | MIC ([5]; Escherichia coli, read-out: Minimum Inhibitory Concentration E. coli) | MIC ([6]; Pseudomonas aeruginosa, PAO1, read-out: Minimum Inhibitory Concentration Pa) | MBEC [7] | MBEC [8] | Lys20 [9] | Minimum Inhibitory Concentration MSSA [1] | Minimum Inhibitory Concentration CA-MRSA [2] | Minimum Inhibitory Concentration HA-MRSA [3] | Minimum Inhibitory Concentration E. faecalis [4] | Minimum Inhibitory Concentration E. coli [5] | Minimum Inhibitory Concentration Pa [6] | fold increase in activity compared to its 12-carbon analog [5] | fold increase in activity compared to BAC and CPC [4] | fold increase in activity compared to BAC and CPC [6] |
| --- | --- | --- | --- | --- | --- | --- | --- | --- | --- | --- | --- | --- | --- | --- | --- | --- | --- | --- |
| CCCCCCCCCCC[n+]1ccc(CCCc2cc[n+](CCCCCCCCCCC)cc2)cc1 [2Pyr-11,11, reference compound] | 1 µM | 2 µM | 2 µM | 8 µM | 2 µM | 16 µM | 1000 µM | 500 µM | 4 µM | – | – | – | – | – | – | – | – | – |
| CCCCCCCCCC[P+](CC[P+](CCCCCCCCCC)(c1ccccc1)c1ccccc1)(CC[P+](CCCCCCCCCC)(c1ccccc1)c1ccccc1)CC[P+](CCCCCCCCCC)(c1ccccc1)c1ccccc1 [4P-10,10,10,10, ((decylphosphoniotriyl)tris(ethane-2,1-diyl))tris(decyldiphenylphosphonium)] | – | – | – | – | – | – | – | – | 8 µM | 16 µM | 32 µM | 32 µM | 250 µM | 250 µM | >250 µM | – | – | – |
| CCCCCCCCCCC[P+](CC[P+](CCCCCCCCCCC)(c1ccccc1)c1ccccc1)(CC[P+](CCCCCCCCCCC)(c1ccccc1)c1ccccc1)CC[P+](CCCCCCCCCCC)(c1ccccc1)c1ccccc1 [4P-11,11,11,11, ((undecylphosphoniotriyl)tris(ethane-2,1-diyl))tris(diphenyl(undecyl)phosphonium)] | – | – | – | – | – | – | – | – | 4 µM | 16 µM | 32 µM | 125 µM | 125 µM | 125 µM | >250 µM | – | – | – |
| CCCCCCCCCCCC[P+](CC[P+](CCCCCCCCCCCC)(c1ccccc1)c1ccccc1)(CC[P+](CCCCCCCCCCCC)(c1ccccc1)c1ccccc1)CC[P+](CCCCCCCCCCCC)(c1ccccc1)c1ccccc1 [4P-12,12,12,12, ((dodecylphosphoniotriyl)tris(ethane-2,1-diyl))tris(dodecyldiphenylphosphonium)] | – | – | – | – | – | – | – | – | 4 µM | 16 µM | 16 µM | 63 µM | 250 µM | 250 µM | >250 µM | – | – | – |
| CCCCCCCCCCCCCCCC[n+]1ccccc1 [CPC, cetylpyridinium chloride, reference compound] | – | – | – | – | – | – | – | – | 4 µM | – | – | – | – | – | – | – | – | – |
| CCCCCCCCCC[N+](C)(C)CCCCCCCCCC.[Cl-] [DDAC] | – | – | – | – | – | – | 1000 µM | 500 µM | – | – | – | – | – | – | – | – | – | – |
| CCCCCCCC[P+](CC[P+](CCCCCCCC)(c1ccccc1)c1ccccc1)(CC[P+](CCCCCCCC)(c1ccccc1)c1ccccc1)c1ccccc1 [P2P2P-8,8,8, ((octyl(phenyl)phosphoniodiyl)bis(ethane-2,1-diyl))bis(octyldiphenylphosphonium)] | – | – | – | – | – | – | – | – | 16 µM | 2 µM | 1 µM | 2 µM | 250 µM | 250 µM | >250 µM | – | – | – |
| CCCCCCCCCC[P+](CC[P+](CCCCCCCCCC)(c1ccccc1)c1ccccc1)(CC[P+](CCCCCCCCCC)(c1ccccc1)c1ccccc1)c1ccccc1 [P2P2P-10,10,10, ((decyl(phenyl)phosphoniodiyl)bis(ethane-2,1-diyl))bis(decyldiphenylphosphonium)] | – | – | – | – | – | – | – | – | 2 µM | 2 µM | 2 µM | 8 µM | 250 µM | 32 µM | >250 µM | – | – | – |
| CCCCCCCCCCC[P+](CC[P+](CCCCCCCCCCC)(c1ccccc1)c1ccccc1)(CC[P+](CCCCCCCCCCC)(c1ccccc1)c1ccccc1)c1ccccc1 [P2P2P-11,11,11, ((phenyl(undecyl)phosphoniodiyl)bis(ethane-2,1-diyl))bis(diphenyl(undecyl)phosphonium)] | – | – | – | – | – | – | – | – | 1 µM | 2 µM | 4 µM | 4 µM | 63 µM | 63 µM | >250 µM | – | – | – |
| CCCCCCCCCCCC[P+](CC[P+](CCCCCCCCCCCC)(c1ccccc1)c1ccccc1)(CC[P+](CCCCCCCCCCCC)(c1ccccc1)c1ccccc1)c1ccccc1 [P2P2P-12,12,12, ((dodecyl(phenyl)phosphoniodiyl)bis(ethane-2,1-diyl))bis(dodecyldiphenylphosphonium)] | – | – | – | – | – | – | – | – | 1 µM | 2 µM | 4 µM | 8 µM | 125 µM | 125 µM | >250 µM | – | – | – |
| CCCCCCCCCCCCC[P+](CC[P+](CCCCCCCCCCCCC)(c1ccccc1)c1ccccc1)(CC[P+](CCCCCCCCCCCCC)(c1ccccc1)c1ccccc1)c1ccccc1 [P2P2P-13,13,13, ((phenyl(tridecyl)phosphoniodiyl)bis(ethane-2,1-diyl))bis(diphenyl(tridecyl)phosphonium)] | – | – | – | – | – | – | – | – | 2 µM | 2 µM | 4 µM | 16 µM | 125 µM | 125 µM | >250 µM | – | – | – |
| CCCCCCCC[P+](c1ccccc1)(c1ccccc1)c1ccccc1 [TPP-8, octyltriphenylphosphonium] | – | – | – | – | – | – | – | – | 63 µM | 4 µM | 4 µM | 125 µM | >250 µM | >250 µM | >250 µM | – | – | – |
| CCCCCCCCCC[P+](c1ccccc1)(c1ccccc1)c1ccccc1 [TPP-10, decyltriphenylphosphonium] | – | – | – | – | – | – | – | – | 16 µM | 1 µM | 2 µM | 8 µM | 250 µM | 250 µM | 250 µM | – | – | – |
| CCCCCCCCCCC[P+](c1ccccc1)(c1ccccc1)c1ccccc1 [TPP-11, triphenyl(undecyl)phosphonium] | – | – | – | – | – | – | – | – | 16 µM | 1 µM | 1 µM | 4 µM | 125 µM | 125 µM | 250 µM | – | – | – |
| CCCCCCCCCCCC[P+](c1ccccc1)(c1ccccc1)c1ccccc1 [TPP-12, dodecyltriphenylphosphonium] | – | – | – | – | – | – | – | – | 8 µM | 0.5 µM | 1 µM | 2 µM | 63 µM | 250 µM | 63 µM | – | – | – |
| CCCCCCCCCCCCC[P+](c1ccccc1)(c1ccccc1)c1ccccc1 [TPP-13, triphenyl(tridecyl)phosphonium] | – | – | – | – | – | – | – | – | 4 µM | 1 µM | 1 µM | 2 µM | 16 µM | 4 µM | 32 µM | ~63 fold | – | – |
| CCCCCCCCCCCCCC[P+](c1ccccc1)(c1ccccc1)c1ccccc1 [TPP-14, triphenyl(tetradecyl)phosphonium] | – | – | – | – | – | – | – | – | 4 µM | 2 µM | 2 µM | 2 µM | 8 µM | 16 µM | 16 µM | – | – | – |
| CCCCCCCCCCCCCCCC[P+](c1ccccc1)(c1ccccc1)c1ccccc1 [TPP-16, hexadecyltriphenylphosphonium] | – | – | – | – | – | – | – | – | 4 µM | 2 µM | 2 µM | 4 µM | 4 µM | 16 µM | 16 µM | – | ~63 fold | ~16 fold |
| benzalkonium chloride [BAC, reference compound] | – | – | – | – | – | – | 2000 µM | 2000 µM | 16 µM | 4 µM | 4 µM | 8 µM | 250 µM | 63 µM | 250 µM | – | – | – |
